Marks after values point to notes of the source that are not given here. Values belong to the molecule of their own block, whether it stands above or below them.
Assays:
CETP = target: T1, CETP (Homo sapiens, UniProt P11597); experiment: Measurement of CETP inhibitory action in human plasma; format: biochemical; conditions: incubated with compound 37° C. 4 hours, Roar Biomedical CETP Activity kit, read-out: IC50 (concentration inhibiting the CETP activity by 50%)
T1 construct: The CETP activity in this plasma was measured with Cholesteryl Ester Transfer Protein Activity kit; from tissue; host or cells: human plasma
T1 sequence (P11597 18-493): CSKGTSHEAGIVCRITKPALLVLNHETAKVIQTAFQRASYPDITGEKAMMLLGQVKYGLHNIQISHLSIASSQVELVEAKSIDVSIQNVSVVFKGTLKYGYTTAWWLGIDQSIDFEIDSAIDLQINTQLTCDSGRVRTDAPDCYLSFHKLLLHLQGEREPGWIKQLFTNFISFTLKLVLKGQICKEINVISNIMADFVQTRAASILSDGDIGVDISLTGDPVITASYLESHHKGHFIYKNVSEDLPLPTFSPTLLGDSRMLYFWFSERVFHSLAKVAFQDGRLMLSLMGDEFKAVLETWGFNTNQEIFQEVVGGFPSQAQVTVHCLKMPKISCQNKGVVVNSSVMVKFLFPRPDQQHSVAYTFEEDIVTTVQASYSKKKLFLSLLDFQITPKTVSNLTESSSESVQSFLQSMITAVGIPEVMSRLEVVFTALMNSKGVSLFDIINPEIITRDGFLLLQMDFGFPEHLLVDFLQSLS
Experimental: A solution obtained by dissolving an exemplary compound in polyethylene glycol/N-methyl-2-pyrrolidone (vol/vol=1/1) was added to human plasma, and the mixture was incubated in an incubator at 37° C. for 4 hours. The CETP activity in this plasma was measured with Cholesteryl Ester Transfer Protein Activity kit (Roar Biomedical, catalog No.: RB-CETP). Specifically, to each well of a 96-well plate, 95 μL of a buffer (10 mM Tris, 150 mM NaCl, 2 mM EDTA, pH 7.4), 2 μL of Donor particle and 2 μL of Acceptor particle were added, 1 μL of the human plasma after the incubation was added to the mixture, and the mixture was incubated in an incubator at 37° C. for 2 hours. After completion of the incubation, fluorescence intensity (FLU) was measured with a fluorescence plate reader (excitation wavelength: 465 nm, emission wavelength: 535 nm). In accordance with the following equation 1, the CETP activity (% of control) was obtained for the compounds of the examples for two or more concentrations. CETP activity (% of control)=(Sample FLU−Blank FLU)×100/(Control FLU−Blank FLU) (Equation 1)
In the equation, the terms have the following meanings: […]
Blank FLU: Fluorescence intensity of sample not added with plasma
Control FLU: Fluorescence intensity of plasma not added with solution of compound
Sample FLU: Fluorescence intensity of plasma added with solution of compound
A value obtained by subtracting the value of the CETP activity from 100 was defined as the CETP inhibitory rate of each exemplary compound, and a concentration inhibiting the CETP activity by 50% (IC50) was calculated for each exemplary compound from the values of the CETP inhibitory rate at two or more concentrations.

normal hamsters = experiment: Measurement of blood HDL cholesterol increasing action in normal hamsters; format: in vivo, male Syrian Hamsters; conditions: for Average HDL cholesterol level ± SD: plasma 2 hours after administration on day 7, n = 5; for HDL cholesterol increasing ratio: relative to control group
Description: N-{1-[3,5-Bis(trifluoromethyl)phenyl]ethyl}-N-({2-[(cyclopentylmethyl)(ethyl)amino]-5-(trifluoromethyl)phenyl}methyl)-5-[2-(methylsulfonyl)ethoxy]pyrimidin-2-amine (Example 3), or 4(S)-[(3,5-bis-trifluoromethylbenzyl)methoxycarbonylamino]-2(R)-ethyl-6-trifluoromethyl-3,4-dihydro-2H-quinoline-1-carboxylic acid ethyl ester (Torcetrapib) disclosed in International Patent Publication WO2000/17164 was suspended in a 5% Tween 80 solution (control vehicle), and then repeatedly administered to normal hamsters (male Syrian Hamsters) by oral administration once a day over 7 days by using a metal catheter. Two hours after the administration on day 7 of the administration, blood was collected, and plasma was obtained. Plasma lipoproteins were analyzed by automatic measurement using a HPLC system based on the postlabeling method according to the method described in J. Lipid. Res., 43, pp. 805-814. Specifically, 15 μL of a plasma sample was diluted 10 times with PBS containing 1 mM EDTA, and then injected in a volume of 80 μL into a gel filtration column (Superose 6 column, column size: 10×300 mm, GE Healthcare Bioscience) connected to a HPLC system (liquid feeding unit: Shimadzu LC-20A System, Shimadzu). Separation was performed by using PBS containing 1 mM EDTA as a running buffer at a flow rate of 0.5 mL/min and at a column temperature of 40° C. The eluate from the column was mixed with a cholesterol measurement reagent (Cholesterol E-Test Wako, Wako Pure Chemical Industries) at a flow rate of 0.25 mL/min, and the reaction was allowed in a reaction coil (0.5 mm×15 m) at 40° C. during the feeding. Cholesterols in the eluate from the reaction coil were detected at a wavelength of 600 nm. An area ratio of the HDL fraction relative to the total area of the obtained cholesterols was calculated, and HDL cholesterol level was calculated by multiplying the total cholesterol level measured beforehand using Cholesterol E Test Wako by the area ratio of the HDL fraction. Five normal hamsters grouped beforehand on the basis of the total plasma cholesterol level were used for each of the control group (control vehicle administration group) and the compound administration groups (groups administered with the compound of Example 3 at 10 mg/kg, 30 mg/kg and 100 mg/kg, and Torcetrapib at 10 mg/kg and 100 mg/kg).
The symbols * and *** used in FIG. 1 and Table 3 indicate presence of significant difference at a risk ratio lower than 5% (p<0.05) and a risk ratio lower than 0.1% (p<0.001), respectively, in a multi-group comparison test (Dunnett's multiple comparison test) performed between the control group and each compound administration group. Further, increasing ratios of HDL cholesterol level in each group relative to the control group were calculated as HDL cholesterol increasing ratios in accordance with the following equation 2, and indicated in terms of %. HDL cholesterol increasing ratio (%)=[(Average HDL cholesterol level of each compound administration group−Average HDL cholesterol level of control group)/Average HDL cholesterol level of control group]×100 (Equation 2)

[1] = 10 mg/kg oral once a day over 7 days
[2] = 30 mg/kg oral once a day over 7 days
[3] = 100 mg/kg oral once a day over 7 days

Compound: CCOC(=O)N1c2ccc(C(F)(F)F)cc2[C@@H](N(Cc2cc(C(F)(F)F)cc(C(F)(F)F)c2)C(=O)OC)C[C@H]1CC [Torcetrapib, 4(S)-[(3,5-bis-trifluoromethylbenzyl)methoxycarbonylamino]-2(R)-ethyl-6-trifluoromethyl-3,4-dihydro-2H-quinoline-1-carboxylic acid ethyl ester, reference compound]
Average HDL cholesterol level ± SD (normal hamsters; [1]): 90.6 ± 7.7 mg/dL
HDL cholesterol increasing ratio (normal hamsters; [1]): 4.8%
Average HDL cholesterol level ± SD (normal hamsters; [3]): 113.0 ± 23.2* mg/dl
HDL cholesterol increasing ratio (normal hamsters; [3]): 30.7%

Compound: CCN(CC1CCCC1)c1cc(C(F)(F)F)ccc1CN(c1ncc(OCC[S+](C)[O-])cn1)C(C)c1cc(C(F)(F)F)cc(C(F)(F)F)c1 (stereo not shown) [Example 15, N-{1-[3,5-bis(trifluoromethyl)phenyl]ethyl}-N-({2-[(cyclopentylmethyl)(ethyl)amino]-4-(trifluoromethyl)phenyl}methyl)-5-[2-(methylsulfinyl)ethoxy]pyrimidin-2-amine]
IC50 (CETP): 0.3 µM

Compound: CCN(CC1CCCC1)c1ccccc1CN(c1ncc(OCCS(C)(=O)=O)cn1)C(C)c1cc(C(F)(F)F)cc(C(F)(F)F)c1 (stereo not shown) [Example 20, N-{1-[3,5-bis(trifluoromethyl)phenyl]ethyl}-N-({2-[(cyclopentylmethyl)(ethyl)amino]phenyl}methyl)-5-[2-(methylsulfonyl)ethoxy]pyrimidin-2-amine]
IC50 (CETP): 0.8 µM

Compound: CCN(CC1CCCC1)c1cc(F)ccc1CN(c1ncc(OCCS(C)(=O)=O)cn1)C(C)c1cc(C(F)(F)F)cc(C(F)(F)F)c1 (stereo not shown) [Example 11, N-{1-[3,5-bis(trifluoromethyl)phenyl]ethyl}-N-({2-[(cyclopentylmethyl)(ethyl)amino]-4-fluorophenyl}methyl)-5-[2-(methylsulfonyl)ethoxy]pyrimidin-2-amine]
IC50 (CETP): 0.25 µM

Compound: CCN(CC1CCCC1)c1cc(Cl)ccc1CN(c1ncc(OCCS(C)(=O)=O)cn1)C(C)c1cc(C(F)(F)F)cc(C(F)(F)F)c1 (stereo not shown) [Example 24, N-{1-[3,5-bis(trifluoromethyl)phenyl]ethyl}-N-({4-chloro-2-[(cyclopentylmethyl)(ethyl)amino]phenyl}methyl)-5-[2-(methylsulfonyl)ethoxy]pyrimidin-2-amine]
IC50 (CETP): 0.3 µM

The next lines start with results.

IC50 (CETP): 0.03 µM
Compound: CCN(CC1CCCC1)c1ccc(C(F)(F)F)cc1CN(c1ncc(OCCS(C)(=O)=O)cn1)C(C)c1cc(C(F)(F)F)cc(C(F)(F)F)c1 (stereo not shown) [Example 3, N-{1-[3,5-bis(trifluoromethyl)phenyl]ethyl}-N-({2-[(cyclopentylmethyl)(ethyl)amino]-5-(trifluoromethyl)phenyl}methyl)-5-[2-(methylsulfonyl)ethoxy]pyrimidin-2-amine]
Average HDL cholesterol level ± SD (normal hamsters; [1]): 118.5 ± 7.6*** mg/dl
HDL cholesterol increasing ratio (normal hamsters; [1]): 37.1%
Average HDL cholesterol level ± SD (normal hamsters; [2]): 124.4 ± 8.4*** mg/dl
HDL cholesterol increasing ratio (normal hamsters; [2]): 43.9%
Average HDL cholesterol level ± SD (normal hamsters; [3]): 126.9 ± 13.2*** mg/dl
HDL cholesterol increasing ratio (normal hamsters; [3]): 46.8%

IC50 (CETP): 0.12 µM
Compound: CCN(C[C@H]1CC[C@H](CC(=O)O)CC1)c1ccc(C(F)(F)F)cc1CN(c1ncc(OCCS(C)(=O)=O)cn1)C(C)c1cc(C(F)(F)F)cc(C(F)(F)F)c1 (stereo partly drawn) [Example 45, trans-{4-[({2-[({1-[3,5-bis(trifluoromethyl)phenyl]ethyl}{5-[2-(methylsulfonyl)ethoxy]pyrimidin-2-yl}amino)methyl]-4-(trifluoromethyl)phenyl}(ethyl)amino)methyl]cyclohexyl}acetic acid]

IC50 (CETP): 0.04 µM
Compound: CCN(CC1CCCC1)c1ccc(C(F)(F)F)cc1CN(c1ncc(OCC[S+](C)[O-])cn1)C(C)c1cc(C(F)(F)F)cc(C(F)(F)F)c1 (stereo not shown) [Example 2, N-{1-[3,5-bis(trifluoromethyl)phenyl]ethyl}-N-({2-[(cyclopentylmethyl)(ethyl)amino]-5-(trifluoromethyl)phenyl}methyl)-5-[2-(methylsulfinyl)ethoxy]pyrimidin-2-amine]

IC50 (CETP): 0.25 µM
Compound: CCN(CC1CCCC1)c1ccc(F)cc1CN(c1ncc(OCCS(C)(=O)=O)cn1)C(C)c1cc(C(F)(F)F)cc(C(F)(F)F)c1 (stereo not shown) [Example 26, N-{1-[3,5-bis(trifluoromethyl)phenyl]ethyl}-N-({2-[(cyclopentylmethyl)(ethyl)amino]-5-fluorophenyl}methyl)-5-[2-(methylsulfonyl)ethoxy]pyrimidin-2-amine]

IC50 (CETP): 0.045 µM
Compound: CCN(CC1CCCC1)c1ccc(Br)cc1CN(c1ncc(OCCS(C)(=O)=O)cn1)C(C)c1cc(C(F)(F)F)cc(C(F)(F)F)c1 (stereo not shown) [Example 30, N-{1-[3,5-bis(trifluoromethyl)phenyl]ethyl}-N-({5-bromo-2-[(cyclopentylmethyl)(ethyl)amino]phenyl}methyl)-5-[2-(methylsulfonyl)ethoxy]pyrimidin-2-amine]

— US7659271B2, “Pyrimidine compound having dibenzylamine structure and medicament comprising the same” (Kowa Company, Ltd., priority 2007, dated 2010)
